# Data as given in paper PMC12770358, “Molecular defense strategy of volatile organic compound-emitting plants (order Piperales) against herbivorous mammals” (Communications Biology, 2025).
# Legend:
# Type in all cases: cell-based
# [1] = target: T1, TRPA1 (Homo sapiens, UniProt O75762); assay: excised-patch single-channel recording and calcium imaging, […]
# T1 construct: Human TRPA1 (NM_007332) expressed in HEK293T cells
# [2] = target: T2, TRPA1 (Homo sapiens, UniProt O75762, C641A); assay: whole-cell patch clamp dose-response
# T2 construct: hTRPA1 mutant expressed in HEK293 cells
# [3] = target: T1, TRPA1; assay: whole-cell and excised-patch (inside-out/outside-out) patch clamp, calcium imaging
# T1 sequence (O75762 whole entry): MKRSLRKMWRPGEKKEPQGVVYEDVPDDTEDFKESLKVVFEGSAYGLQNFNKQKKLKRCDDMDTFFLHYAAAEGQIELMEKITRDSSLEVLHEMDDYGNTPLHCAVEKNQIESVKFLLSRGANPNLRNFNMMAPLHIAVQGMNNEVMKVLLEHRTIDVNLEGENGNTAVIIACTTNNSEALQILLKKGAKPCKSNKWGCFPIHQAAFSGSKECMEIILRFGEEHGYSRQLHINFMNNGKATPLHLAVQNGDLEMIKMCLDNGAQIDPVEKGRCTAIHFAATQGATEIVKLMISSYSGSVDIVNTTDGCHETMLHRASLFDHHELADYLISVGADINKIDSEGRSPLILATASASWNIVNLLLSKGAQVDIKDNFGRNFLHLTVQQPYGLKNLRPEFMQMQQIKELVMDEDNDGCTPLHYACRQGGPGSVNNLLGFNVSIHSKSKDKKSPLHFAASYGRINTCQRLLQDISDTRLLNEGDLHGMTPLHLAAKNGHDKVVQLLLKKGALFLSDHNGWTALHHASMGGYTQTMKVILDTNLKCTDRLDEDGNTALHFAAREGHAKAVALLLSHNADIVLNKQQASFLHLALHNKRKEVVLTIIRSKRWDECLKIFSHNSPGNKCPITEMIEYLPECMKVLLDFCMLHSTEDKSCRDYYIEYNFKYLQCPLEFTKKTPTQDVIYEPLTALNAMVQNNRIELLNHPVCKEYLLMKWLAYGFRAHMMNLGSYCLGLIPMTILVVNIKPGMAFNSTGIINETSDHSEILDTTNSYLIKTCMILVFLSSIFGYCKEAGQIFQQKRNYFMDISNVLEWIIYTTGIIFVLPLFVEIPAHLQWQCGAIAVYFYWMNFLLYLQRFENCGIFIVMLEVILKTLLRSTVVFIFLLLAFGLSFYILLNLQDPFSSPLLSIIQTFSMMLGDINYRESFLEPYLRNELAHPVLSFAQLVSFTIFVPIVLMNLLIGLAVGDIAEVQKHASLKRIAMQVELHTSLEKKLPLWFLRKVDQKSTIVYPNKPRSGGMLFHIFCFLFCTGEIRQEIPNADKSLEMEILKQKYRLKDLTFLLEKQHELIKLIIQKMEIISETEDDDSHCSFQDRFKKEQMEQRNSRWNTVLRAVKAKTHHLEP
# T2 sequence (O75762 whole entry C641A): as the sequence (O75762 whole entry) above, with C641A counted along it
EC50 [2],EC50 [3],Compound,"excised-patch single-channel recording and calcium imaging, 1 mM [1]"
–,–,"C=CCN=C=S [AITC, allyl isothiocyanate]","consistently observed in both configurations, mirroring the effects of AITC, a membrane-permeable TRPA1 agonist"
432 ± 9.72 µM,343 ± 12.5 µM,"CCCCCCCCCC(=O)CC(O)S(=O)(=O)O (stereo not drawn) [SH, sodium houttuyfonate]",–
